According to US20220177428A1, “SPECIFICALLY SUBSTITUTED 3-(2-ALKOXY-6-ALKYL-4-PROPINYLPHENYL)-3-PYRROLIN-2-ONES AND THEIR USE AS HERBICIDES” (Bayer Aktiengesellschaft, priority 2019, published 2022):

Experiments:
Test in all cases: Post-emergence herbicidal effect
Type in all cases: in vivo
Conditions in all cases: 80 g ai/ha, visual score after about 3 weeks
[1] = system: Echinochloa crus-galli
Method: (§1) [table] Seeds of monocotyledonous and dicotyledonous weed and crop plants are laid out in sandy loam soil in wood-fibre pots, covered with soil and cultivated in a greenhouse under good growth conditions. 2 to 3 weeks after sowing, the test plants are treated at the one-leaf stage. The compounds of the invention, formulated in the form of wettable powders (WP) or as emulsion concentrates (EC), are then sprayed onto the green parts of the plants as aqueous suspension or emulsion at a water application rate equating to 600 to 800 L/ha with addition of 0.2% wetting agent. After the test plants have been left to stand in the greenhouse under optimal growth conditions for about 3 weeks, the action of the preparations is assessed visually in comparison to untreated controls (herbicidal action in percent (%): 100% activity=the plants have died, 0% activity=like control plants).

[2] = system: Setaria viridis
Method: as §1

[3] = system: Alopecurus myosuroides
Method: as §1

[4] = system: Digitaria sanguinalis
Method: as §1

[5] = system: Hordeum murinum
Method: as §1

[6] = system: Lolium rigidum
Method: as §1

[7] = system: Avena fatua
Method: as §1

Structure (SMILES)	Post-emergence activity ECHCG [1] [%]	Post-emergence activity SETVI [2] [%]	Post-emergence activity ALOMY [3] [%]	Post-emergence activity DIGSA [4] [%]	Post-emergence activity HORMU [5] [%]	Post-emergence activity LOLRI [6] [%]	Post-emergence activity AVEFA [7] [%]
C=CCOC1CCC2(CC1)NC(=O)C(c1c(C)cc(C#CC)cc1OC)=C2O (stereo not shown) [Example D5]	100	100	100	100	100	100	100
CC#Cc1cc(C)c(C2=C(OC(=O)OCC)C3(CCCC(OCCC)C3)NC2=O)c(OC)c1 (stereo not shown) [Example P3]	100	100	100	100	100	100	100
CC#Cc1cc(C)c(C2=C(O)C3(CCCC(OCCC)C3)NC2=O)c(OC)c1 (stereo not shown) [Example D1, 4-Hydroxy-3-[2-methoxy-6-methyl-4-(prop-1-yn-1-yl)phenyl]-7-propoxy-1-azaspiro[4.5]dec-3-en-2-one]	100	100	100	100	100	100	100
CC#Cc1cc(C)c(C2=C(OC(=O)C(C)C)C3(CCCC(OCCC)C3)NC2=O)c(OC)c1 (stereo not shown) [Example P4]	100	100	100	90	100	100	100
CC#Cc1cc(C)c(C2=C(OC(=O)CC)C3(CCCC(OCCC)C3)NC2=O)c(OC)c1 (stereo not shown) [Example P5]	100	100	100	100	100	100	100
C=CCOC1CCC2(CC1)NC(=O)C(c1c(C)cc(C#CC)cc1OC)=C2OC(=O)C(C)C (stereo not shown) [Example Q5]	100	100	100	100	90	100	
C=CCOC1CCC2(CC1)NC(=O)C(c1c(C)cc(C#CC)cc1OC)=C2OC(=O)OC (stereo not shown) [Example Q3]	100	100	100	90	100	100	80
CC#Cc1cc(C)c(C2=C(OC(=O)OC)C3(CCCC(OCCC)C3)NC2=O)c(OC)c1 (stereo not shown) [Example P2]	100	100	100	100	100	100	100
